Source: article PMC6130634 (Pharmaceutical Biology, 2017)

Key:
[1] = Oral pharmacokinetics of ChA in beagle plasma; assay type: in vivo, beagles; conditions: dog, 60 mg/kg
[2] = Stability of ChA in beagle urine under various storage conditions; assay type: in vitro ADME
[3] = Stability of ChA in beagle faeces under various storage conditions; assay type: in vitro ADME

O=C(/C=C/c1ccc(O)c(O)c1)O[C@@H]1C[C@](O)(C(=O)O)C[C@@H](O)[C@H]1O [ChA, Chlorogenic acid] gave an AUC(0-inf) [1] of 6320 ± 1850 ng·h/mL, an AUC(0-t) [1] of 5590 ± 1410 ng·h/mL and a Cmax [1] of 2350 ± 483 ng/mL. For the same compound, the Tmax [1] was 1.86 ± 0.499 h, the half-life [1] was 54.7 ± 11.2 min and the “time ChA was stable” value ([2]; processed urine, 4 °C) was “at least 8 h”. For the same compound, the “time ChA was stable” value ([2]; urine, room temperature) was no less than 6 h, the “time ChA was stable” value ([2]; urine, −70 °C) was “at least 20 d” and the “time ChA was stable” value ([3]; faeces, room temperature) was no less than 6 h. For the same compound, the “time ChA was stable” value ([3]; faeces, −70 °C) was no less than 170 h and the “time ChA was stable” value ([3]; processed faeces, 4 °C) was “at least 8 h”.
